Reference: US11759455B2, “Substituted 1H-imidazo[4,5-b]pyridin-2(3H)-ones and their use as GLUN2B receptor modulators” (JANSSEN PHARMACEUTICA NV, priority 2016, dated 2023)

biological target: T1, human GluN1/GluN2B NMDA receptors (Homo sapiens, UniProt Q13224); assay: Cell-based calcium flux (FLIPR) assay on cloned human NR1/NR2B ion channels expressed in mammalian cells (standard and HTS buffer variants); conditions: standard assay buffer (0.5 mM MgCl2 dye loading; 137 mM NaCl, 4 mM KCl assay buffer), human GluN1/GluN2B cells, read-out: NR2B IC50 (μM) standard assay;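 further: stable Tet-On inducible cell line, Ca2+ influx triggered by glutamate at about EC40 plus 10 µM glycine, fluorescent dye read-out over 5 min, normalized to control wells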
T1 construct: expressed in transfected cells
T1 sequence (Q13224 27-1484, other chains not shown): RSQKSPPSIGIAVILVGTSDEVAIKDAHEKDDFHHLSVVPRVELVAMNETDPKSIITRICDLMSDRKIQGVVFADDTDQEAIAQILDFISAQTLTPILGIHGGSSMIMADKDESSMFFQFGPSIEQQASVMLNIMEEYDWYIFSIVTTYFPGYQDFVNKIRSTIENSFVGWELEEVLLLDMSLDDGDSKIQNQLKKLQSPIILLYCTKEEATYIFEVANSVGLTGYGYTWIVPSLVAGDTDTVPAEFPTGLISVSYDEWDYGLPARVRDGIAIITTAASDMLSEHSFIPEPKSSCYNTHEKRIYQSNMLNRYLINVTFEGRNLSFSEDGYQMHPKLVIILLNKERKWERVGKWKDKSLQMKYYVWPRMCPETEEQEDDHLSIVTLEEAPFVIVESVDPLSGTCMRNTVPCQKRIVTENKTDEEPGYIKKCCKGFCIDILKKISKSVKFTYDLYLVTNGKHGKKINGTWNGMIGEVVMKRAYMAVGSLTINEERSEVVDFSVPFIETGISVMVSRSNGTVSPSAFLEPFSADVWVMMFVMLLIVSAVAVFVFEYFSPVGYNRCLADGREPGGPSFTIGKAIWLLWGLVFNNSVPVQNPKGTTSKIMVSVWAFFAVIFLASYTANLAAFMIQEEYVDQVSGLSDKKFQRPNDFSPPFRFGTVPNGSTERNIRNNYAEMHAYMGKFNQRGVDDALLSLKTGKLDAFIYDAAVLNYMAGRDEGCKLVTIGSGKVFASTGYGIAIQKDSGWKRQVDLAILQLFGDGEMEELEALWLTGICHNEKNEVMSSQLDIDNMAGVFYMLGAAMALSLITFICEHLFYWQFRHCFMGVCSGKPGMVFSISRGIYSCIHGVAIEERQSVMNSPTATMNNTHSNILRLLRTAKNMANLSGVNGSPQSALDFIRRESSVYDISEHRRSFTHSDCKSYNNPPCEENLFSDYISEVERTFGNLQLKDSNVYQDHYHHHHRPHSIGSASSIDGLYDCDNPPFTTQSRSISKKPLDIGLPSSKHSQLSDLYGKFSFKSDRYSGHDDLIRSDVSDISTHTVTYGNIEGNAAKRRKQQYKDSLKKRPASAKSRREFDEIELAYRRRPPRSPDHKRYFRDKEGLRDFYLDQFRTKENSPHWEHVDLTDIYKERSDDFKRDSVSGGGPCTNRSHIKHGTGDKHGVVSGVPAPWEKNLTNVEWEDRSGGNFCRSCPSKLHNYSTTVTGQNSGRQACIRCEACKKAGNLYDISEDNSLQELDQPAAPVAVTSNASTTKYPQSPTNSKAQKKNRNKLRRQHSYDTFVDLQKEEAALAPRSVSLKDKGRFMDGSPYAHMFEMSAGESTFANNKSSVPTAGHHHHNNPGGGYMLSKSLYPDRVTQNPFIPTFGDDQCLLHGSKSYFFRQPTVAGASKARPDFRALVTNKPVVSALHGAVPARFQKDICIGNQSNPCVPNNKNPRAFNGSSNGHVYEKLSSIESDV

IC50 | Compound
1.22 µM | CC1CCN(CCn2c(=O)[nH]c3ncc(-c4cccc(C(F)(F)F)c4)cc32)C1 (stereo not shown) [Example 164, 1-[2-(3-Methylpyrrolidin-1-yl)ethyl]-6-[3-(trifluoromethyl)phenyl]-3H-imidazo[4,5-b]pyridin-2-one]
3.48 µM | O=c1[nH]c2ncc(-c3cccc(C(F)(F)F)c3)cc2n1CCN1CC(C(F)(F)F)C1 [Example 166, 1-[2-[3-(Trifluoromethyl)azetidin-1-yl]ethyl]-6-[3-(trifluoromethyl)phenyl]-3H-imidazo[4,5-b]pyridin-2-one]
0.158 µM | O=c1[nH]c2ncc(-c3cccc(C(F)(F)F)c3)cc2n1CCN1CC(F)(F)C1 [Example 167, 1-[2-(3,3-Difluoroazetidin-1-yl)ethyl]-6-[3-(trifluoromethyl)phenyl]-3H-imidazo[4,5-b]pyridin-2-one]
4.23 µM | Cc1c(-c2cnc3[nH]c(=O)n(CCN4CCC4)c3c2)cccc1C(F)(F)F [Example 168, 1-[2-(Azetidin-1-yl)ethyl]-6-[2-methyl-3-(trifluoromethyl)phenyl]-3H-imidazo[4,5-b]pyridin-2-one]
0.217 µM | Cc1cccc(-c2cnc3[nH]c(=O)n(CCN4CCC4)c3c2)c1C [Example 169, 1-[2-(Azetidin-1-yl)ethyl]-6-(2,3-dimethylphenyl)-3H-imidazo[4,5-b]pyridin-2-one]
0.581 µM | Cc1cc(C)cc(-c2cnc3[nH]c(=O)n(CCN4CCC4)c3c2)c1 [Example 170, 1-[2-(Azetidin-1-yl)ethyl]-6-(3,5-dimethylphenyl)-3H-imidazo[4,5-b]pyridin-2-one]
0.21 µM | Cc1c(F)ccc(-c2cnc3[nH]c(=O)n(CCN4CCC4)c3c2)c1C [Example 171, 1-[2-(Azetidin-1-yl)ethyl]-6-(4-fluoro-2,3-dimethyl-phenyl)-3H-imidazo[4,5-b]pyridin-2-one]
0.326 µM | Cc1ccc(C(F)(F)F)cc1-c1cnc2[nH]c(=O)n(CCN3CCC3)c2c1 [Example 172, 1-[2-(Azetidin-1-yl)ethyl]-6-[2-methyl-5-(trifluoromethyl)phenyl]-3H-imidazo[4,5-b]pyridin-2-one]
4.26 µM | O=c1[nH]c2ncc(-c3cc(F)cc(F)c3)cc2n1CCNCCO [Example 173, 6-(3,5-Difluorophenyl)-1-[2-(2-hydroxyethylamino)ethyl]-3H-imidazo[4,5-b]pyridin-2-one]
1.25 µM | O=c1[nH]c2ncc(-c3cc(F)cc(F)c3)cc2n1CCN1CCCC1 [Example 174, 6-(3,5-Difluorophenyl)-1-(2-pyrrolidin-1-ylethyl)-3H-imidazo[4,5-b]pyridin-2-one]
2.11 µM | O=c1[nH]c2ncc(-c3cc(F)cc(F)c3)cc2n1CCN1CCC(O)C1 (stereo not shown) [Example 175, 6-(3,5-Difluorophenyl)-1-[2-(3-hydroxypyrrolidin-1-yl)ethyl]-3H-imidazo[4,5-b]pyridin-2-one]
4.37 µM | COC1CCN(CCn2c(=O)[nH]c3ncc(-c4cc(F)cc(F)c4)cc32)C1 (stereo not shown) [Example 176, 6-(3,5-Difluorophenyl)-1-[2-(3-methoxypyrrolidin-1-yl)ethyl]-3H-imidazo[4,5-b]pyridin-2-one]
0.502 µM | Cc1cc(F)ccc1-c1cnc2[nH]c(=O)n(CCN3CCCC3)c2c1 [Example 177, 6-(4-Fluoro-2-methyl-phenyl)-1-(2-pyrrolidin-1-ylethyl)-3H-imidazo[4,5-b]pyridin-2-one]
20.7 µM | Cc1cccc(C)c1-c1cnc2[nH]c(=O)n(CCN3CCCC3)c2c1 [Example 178, 6-(2,6-Dimethylphenyl)-1-(2-pyrrolidin-1-ylethyl)-3H-imidazo[4,5-b]pyridin-2-one]
0.707 µM | Cc1ccccc1-c1cnc2[nH]c(=O)n(CCN3CCCC3)c2c1 [Example 179, 6-(o-Tolyl)-1-(2-pyrrolidin-1-ylethyl)-3H-imidazo[4,5-b]pyridin-2-one]
0.539 µM | O=c1[nH]c2ncc(-c3ccccc3)cc2n1CCN1CCCC1 [Example 180, 6-Phenyl-1-(2-pyrrolidin-1-ylethyl)-3H-imidazo[4,5-b]pyridin-2-one]
